The values below come from PubChem BioAssay (NCI).

Test systems include OVCAR-3 ovarian; OVCAR-8 ovarian; HS 578T breast; HT29 colon; HCC-2998 colon; SF-295 CNS; SK-MEL-2 melanoma; HCT-15 colon; OVCAR-4 ovarian; MDA-MB-435; SK-MEL-28 melanoma; SNB-75 CNS; TK-10 renal; 786-0 renal; IGROV1 ovarian; LOX IMVI melanoma; K-562 leukemia; CCRF-CEM leukemia; PC-3 prostate; HL-60(TB) leukemia.
Common to all, as to assay: NCI-60 cell line screen, 48 h

The structures appear in SMILES notation.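 Step 1: Grow cells in 96-well plates. Step 2: Expose to compound for 48 hours at 5 concentrations. Step 3: Interpolate endpoints linearly; if unreached, use highest concentration. At the TGI there is no net growth.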 Where a SMILES comes first, the peptide text is derived from it. The star is where a group is joined. ONb = O=[N+]([O-])c1ccc(CO*)cc1; Boc = CC(C)(C)OC(=O)*

For `O=c1[nH]c(=O)n(C2CC(O)C(CO)O2)cc1C1=NC1` (stereo not given), the TGI in the assay on OVCAR-3 ovarian, in the assay with OVCAR-8 ovarian, in the assay with HS 578T breast, in the assay with HT29 colon, with HCC-2998 colon and with SF-295 CNS was above 100 µM in each case. Also, the TGI with SK-MEL-2 melanoma, with HCT-15 colon, in the assay on OVCAR-4 ovarian, with MDA-MB-435, in the assay on SK-MEL-28 melanoma and with SNB-75 CNS was above 100 µM each time. In addition, the TGI in the assay with TK-10 renal, in the assay with 786-0 renal and in the assay on IGROV1 ovarian was above 100 µM throughout.
In the case of `CCCCNC(=S)Nc1nc(C(=O)NNC(=S)NC2CCCCC2)cs1`, the TGI with OVCAR-3 ovarian, in the assay on OVCAR-8 ovarian, in the assay with HT29 colon, in the assay with HCC-2998 colon, in the assay on SF-295 CNS and with LOX IMVI melanoma was above 100 µM in each case. Also, the TGI in the assay with SK-MEL-2 melanoma, in the assay with HCT-15 colon, with OVCAR-4 ovarian, in the assay on MDA-MB-435, in the assay with K-562 leukemia and with TK-10 renal was above 100 µM in each case. Further, the TGI in the assay with 786-0 renal, with CCRF-CEM leukemia, in the assay on PC-3 prostate and with IGROV1 ovarian was above 100 µM each time.
Regarding `CC(=O)OCC1OC(SC2OC(COC(C)=O)C(OC(C)=O)C(OC(C)=O)C2OC(C)=O)C(OC(C)=O)C(OC(C)=O)C1OC(C)=O` (stereo not given), the TGI in the assay with OVCAR-3 ovarian, in the assay with OVCAR-8 ovarian, in the assay on HT29 colon, in the assay with HCC-2998 colon, in the assay with SF-295 CNS and in the assay on LOX IMVI melanoma was above 100 µM throughout. The TGI in the assay on HCT-15 colon, in the assay with OVCAR-4 ovarian, with MDA-MB-435, with SK-MEL-28 melanoma, with K-562 leukemia and with SNB-75 CNS was above 100 µM in each case. The TGI in the assay on TK-10 renal, in the assay with 786-0 renal, with CCRF-CEM leukemia, with HL-60(TB) leukemia and with IGROV1 ovarian was above 100 µM throughout.
On to `CCN1CCN(c2nc3ccc([N+](=O)[O-])cc3nc2C(=O)c2ccccc2)CC1`, for which the TGI in the assay with OVCAR-3 ovarian was determined as 30.6 µM; in the assay on OVCAR-8 ovarian, 30.5 µM; with HCC-2998 colon, 28.6 µM; in the assay on SF-295 CNS it was 30.3 µM; with LOX IMVI melanoma, 17.8 µM; with SK-MEL-2 melanoma, 29.3 µM. Moreover, the TGI with HCT-15 colon is 25 µM; in the assay with MDA-MB-435 it was 30.2 µM; in the assay on K-562 leukemia it was above 100 µM; with TK-10 renal it was 34.2 µM; in the assay on 786-0 renal, 34.2 µM; with CCRF-CEM leukemia, 8.27 µM. Further, the TGI in the assay on PC-3 prostate was determined as 32.3 µM; in the assay on HL-60(TB) leukemia, 61.9 µM; with IGROV1 ovarian it was 18.9 µM.
For `CN1CCC(CN2c3ccccc3Sc3ccccc32)CC1`, the TGI in the assay on OVCAR-3 ovarian was 29 µM; in the assay with OVCAR-8 ovarian it was 31.2 µM; in the assay on HT29 colon, 25.3 µM; with HCC-2998 colon, 25.6 µM; with SF-295 CNS it was 29.3 µM; with LOX IMVI melanoma, 26.4 µM. The TGI stood at 31 µM in the assay on SK-MEL-2 melanoma; 32.4 µM in the assay with HCT-15 colon; 30.5 µM in the assay with OVCAR-4 ovarian; 23.1 µM in the assay on SK-MEL-28 melanoma; 32.3 µM in the assay with K-562 leukemia; 29.2 µM in the assay with TK-10 renal. Further, the TGI stood at 27.3 µM in the assay with 786-0 renal, 35.9 µM in the assay with CCRF-CEM leukemia, 32.8 µM with HL-60(TB) leukemia and 30.4 µM in the assay on IGROV1 ovarian.
On to `CC(C)CC(NC(=O)OC(C)(C)C)C(=O)NC(CCC(=O)OCc1ccc([N+](=O)[O-])cc1)C(=O)OCc1ccc([N+](=O)[O-])cc1` (stereo not drawn) (Boc-Leu-Glu(ONb)-ONb; configuration not given here), for which the TGI is 77.4 µM in the assay on OVCAR-3 ovarian; above 100 µM in the assay on OVCAR-8 ovarian; 94.7 µM in the assay on HT29 colon; 44.6 µM in the assay with HCC-2998 colon; above 100 µM in the assay on SF-295 CNS; 63.8 µM in the assay with LOX IMVI melanoma. Moreover, the TGI in the assay on SK-MEL-2 melanoma was 78.3 µM; in the assay on HCT-15 colon, above 100 µM; in the assay with OVCAR-4 ovarian, above 100 µM; in the assay with SK-MEL-28 melanoma it was 30.9 µM; in the assay on K-562 leukemia, 39.4 µM; in the assay on SNB-75 CNS it was 31.9 µM. Besides, the TGI with TK-10 renal is above 100 µM; in the assay on 786-0 renal it was 71.5 µM; in the assay on CCRF-CEM leukemia, 57.5 µM; in the assay with PC-3 prostate, above 100 µM; in the assay with HL-60(TB) leukemia, 19.1 µM; in the assay on IGROV1 ovarian, 47.6 µM.
With `CC(=O)O[C@@H]1C2=C(C)C=C(O2)[C@H]2O[C@]2(C)C[C@H]2C=C(C(=O)O2)[C@H](OC(C)=O)CC1[C@@]1(C)CO1` (stereo not given in full), the TGI was above 100 µM in the assay with OVCAR-8 ovarian; above 100 µM in the assay with HT29 colon; above 100 µM in the assay on HCC-2998 colon; above 100 µM in the assay on SF-295 CNS; 37.6 µM in the assay with LOX IMVI melanoma; above 100 µM in the assay on SK-MEL-2 melanoma. The TGI is 63.6 µM in the assay on HCT-15 colon; above 100 µM in the assay with OVCAR-4 ovarian; 71.8 µM with MDA-MB-435; 36 µM in the assay with SK-MEL-28 melanoma; 36.5 µM with K-562 leukemia; above 100 µM in the assay with SNB-75 CNS. Further, the TGI was above 100 µM with TK-10 renal; 77.1 µM in the assay with 786-0 renal; 29.6 µM in the assay with CCRF-CEM leukemia; above 100 µM with PC-3 prostate; 30.8 µM in the assay on IGROV1 ovarian.
Take `O=C(/C=C/c1ccc(O)c(O)c1)c1cc(O)cc(O)c1`: the TGI was found to be 26.4 µM in the assay on OVCAR-3 ovarian; 32.8 µM with OVCAR-8 ovarian; 70.5 µM with HS 578T breast; 39 µM in the assay with HT29 colon; 40.1 µM in the assay with SF-295 CNS; 18.9 µM with LOX IMVI melanoma. Also, the TGI in the assay with SK-MEL-2 melanoma was 28.2 µM; in the assay with HCT-15 colon it was 29.2 µM; with OVCAR-4 ovarian, 22.2 µM; in the assay on MDA-MB-435 it was 20.3 µM; in the assay with SK-MEL-28 melanoma, 31.2 µM; with SNB-75 CNS, 34.5 µM. In addition, the TGI in the assay on TK-10 renal amounted to 39.7 µM; with 786-0 renal, 26.6 µM; with PC-3 prostate, 28.5 µM; in the assay on IGROV1 ovarian, 27.5 µM.
